Source: US20040043503A1, “Automatic mass spectrometry analytical system for the quantitative detection of organic toxicant exposure in the human body” (priority 2002, published 2004)

Test: S-PMA concentration in urine samples from neonates and adults, by automatic mass spectrometry analytical system (on-line C18 cartridge, ESI-MS/MS)
Type: in vivo, human
Description: The collected urine samples were passed through 0.2 μm filtration membranes. An aliquot of 400 μL of filtered urine was firstly mixed with […] of 20% acetic acid and 100 μL of 1000 μg/L internal standard (IS), N-t-BOC-S-(p-methyl-benyl)-L-cysteine, with a known amount of S-PMA added when spiking experiments were performed, and diluted with 1400 μL of deionized water. From the total volume of 2000 μL, 200 μL of aliquot was injected into the analytical system (FIG. 1) for analysis. No other sample pretreatment procedures were performed or required other than the filtration described above. This can greatly simplify preparation procedures and save time.
Samples were loaded onto the C18 cartridge 2 (particle size 3 μm) by the pump 10 of autosampler 1 (as shown in FIG. 1) using 100% water at 0.6 mL/min, and were washed with 100% water for optimization time of 12 minutes (1.0, 2.0, 3.0, 4.0, 5.0, 6.0, 7.0, 8.0, 10.0, 12.0, 13.0, 14.0). This is to remove highly hydrophilic components of the urine samples to avoid interference with the subsequent detection results of spectrometry 4. The switching unit 3 (valve) was then activated to the Elute position and the sample was eluted with 1.0 mL/min 100% methanol provided by pump 10′ from cartridge 2 into the mass spectrometry 4 for analysis.
The mass spectrometry used in this invention is the API 365 Triple Quadrupole MS/MS.
Using the process described in Embodiment 1 above, this invention was used to establish the optimal experimental mode of quantitative detection of organic toxicant exposure in the human body using an automatic mass spectrometry analytical system. This Embodiment is to analyze the S-PMA concentration in urine samples collected from six neonates and six adults in the same hospital; the results are listed in Table 1. In the automatic mass spectrometry analytical system of this invention, each analysis took less than 18 minutes, and therefore 80 urine samples could be analyzed within 24 hours.

## CC(=O)NC(CSc1ccccc1)C(=O)O (centres unmarked) [S-PMA, S-phenyl mercapturic acid]
Adult 1, non-smoker
  S-PMA: 0.560 µg/L
Adult 2, non-smoker
  S-PMA: 1.268 µg/L
Adult 3, non-smoker
  S-PMA: 1.411 µg/L
Adult 4, non-smoker
  S-PMA: 4.196 µg/L
Adult 5, non-smoker
  S-PMA: 0.993 µg/L
Adult 6, non-smoker
  S-PMA: 1.255 µg/L
Neonate 1
  S-PMA: 0.249 µg/L
Neonate 2
  S-PMA: 0.345 µg/L
Neonate 3
  S-PMA: 0.322 µg/L
Neonate 4
  S-PMA: 0.365 µg/L
Neonate 5
  S-PMA: 0.356 µg/L
Neonate 6
  S-PMA: 0.348 µg/L
Six adults, non-smokers
  S-PMA Arithmetic Mean: 1.614 µg/L
Six neonates
  S-PMA Arithmetic Mean: 0.331 µg/L
